Laboratory results reported in patent US11214572B2, “7-site substituted pyrrole triazine compounds or pharmaceutically acceptable salts thereof, and preparation method thereof and uses thereof” (SHANGHAI INSTITUTE OF MATERIA MEDICA, CHINESE ACADEMY OF …, priority 2017, dated 2022).
“And” between values parts separate entries of the source, which are not always exact repeats. Equal entries are not always repeated. “Also recorded” adds a separate entry of the source. Where two headings read alike, the source gives them in different places.

How the values were obtained:
[1] = Preliminary pharmacokinetic test, intravenous injection; format: in vivo, SD rats; conditions: rats, intravenous injection 5 mg/kg, tested as monomesylate
Experimental: (§1) 1. 14 healthy SD rats, male, weigh 200-220 g, were taken to be randomly divided into 4 groups, 3-4 in each group, and were administered the tested compound P-17 and compound CYH33 (compared with compound P-17, missing a methyl group on 7-position) via intragastric administration (10 mg/kg) and intravenous injection (5 mg/kg) respectively, the specific arrangements are shown in the following table 3:
(§2) The rats were fasted for 12 h before experiment, water was taken freely. The rats were fed 2 h after dosing.
Dosing via intravenous: 5 min, 0.25 h, 0.5 h, 1.0 h, 2.0 h, 4.0 h, 6.0 h, 8.0 h, and 24 h after dosing.
(§3) At the above setting time points, 0.3 ml of venous blood was taken from the retroorbital venous plexus of the rat, and placed in a heparinized test tube, centrifuged at 11,000 rpm for 5 min, then the plasma was separated, and frozen in a refrigerator at −20° C.
(§4) LC/MS/MS method was used to determine the concentration of the compounds in the plasma of rats.
(§5) The non-compartment model of Phoenix 1.3 software (Pharsight Corporation, USA) was used to calculate the pharmacokinetic parameters after dosing.

[2] = Preliminary pharmacokinetic test, intragastric administration; format: in vivo, SD rats; conditions: rats, 10 mg/kg versus 5 mg/kg intravenous; monomesylate
Experimental: as §1, §2
Dosing via intragastric administration: 0.25 h, 0.5 h, 1.0 h, 2.0 h, 3.0 h, 4.0 h, 6.0 h, 8.0 h, and 24 h after dosing.
as §3, §4, §5

PI3Kγ = PI3Kγ (Homo sapiens, UniProt P48736); assay: PI3K kinase activity, γ isoform; format: biochemical; conditions: for inhibition at 0.1 µM: compound 100 nM, read-out: IH (%) @ 100 nM, γ;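 as to all read-outs here: kinase reaction run in 384-well plates, with inhibition normalised between the 0% and 100% reference reactions. IC50 derived from a ten-point, fourfold serial dilution series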
Experimental: (§6) Concentration setting for preliminary screening: the compounds to be tested were dissolved in DMSO (dimethyl sulfoxide) to 100 μM or 10 μM as storage solutions; for each one, 2 μL was taken to be added to 48 μL of 1× Reaction Buffer to obtain a 4 μM or 400 nM compound solution containing 4% DMSO. After well mixing, the mixture was diluted with 4% DMSO in 1× Reaction Buffer to obtain a 4 μM or 400 nM compound solution. 5 μL of each diluted solution was taken to be added to a 384-well plate, so that the final concentration of the compound in the final 20 μL of the kinase reaction system was 1 μM and 100 nM or 100 nM and 20 nM, respectively, and containing 1% DMSO.
(§7) The compounds to be tested were dissolved in DMSO to 1 mM or 10 mM as working solutions, 1 μL of each working solution was taken to be added to 24 μl of 1× Kinase Buffer A to obtain a 40 μM or 400 μM compound solution containing 4% DMSO. The compound solution was diluted by 4× gradient in sequence, 10 dilution concentrations.
(§8) Calculation of the Inhibition Rate • The inhibitory rate was calculated by the following formula: Inhibitory rate=(ERsample−ER0%)/(ER100%−ER0%)×100%

PI3Kβ = PI3Kβ (Homo sapiens, UniProt P42338); assay: PI3K kinase activity, β isoform; conditions: for inhibition at 0.1 µM: read-out: IH (%) @ 100 nM, β;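 as to all read-outs here: kinase reaction containing 1% DMSO, read as an emission ratio, with inhibition scaled between the 0% and 100% control ratios. IC50 values come from a ten-point fourfold dilution series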
Experimental: as §6, §7, §8

PI3Kα = PI3Kα (Homo sapiens, UniProt P42336); assay: PI3K kinase activity, α isoform; conditions: for inhibition at 0.02 µM: read-out: IH (%) @ 20 nM, α
Experimental: as §6, §7, §8

PI3Kδ = PI3Kδ (Homo sapiens, UniProt O00329); assay: PI3K kinase activity, δ isoform; conditions: for inhibition at 0.02 µM: read-out: IH (%) @ 20 nM, δ; for selectivity for PI3Kδ (in words): versus other PI3K isoforms, from Tables 1 and 2
Experimental: as §6, §7, §8

[3] = male, SD, rat, plasma, iv, 5 mg/kg, individual animal

Sequence of PI3Kβ (P42338 whole entry, canonical isoform): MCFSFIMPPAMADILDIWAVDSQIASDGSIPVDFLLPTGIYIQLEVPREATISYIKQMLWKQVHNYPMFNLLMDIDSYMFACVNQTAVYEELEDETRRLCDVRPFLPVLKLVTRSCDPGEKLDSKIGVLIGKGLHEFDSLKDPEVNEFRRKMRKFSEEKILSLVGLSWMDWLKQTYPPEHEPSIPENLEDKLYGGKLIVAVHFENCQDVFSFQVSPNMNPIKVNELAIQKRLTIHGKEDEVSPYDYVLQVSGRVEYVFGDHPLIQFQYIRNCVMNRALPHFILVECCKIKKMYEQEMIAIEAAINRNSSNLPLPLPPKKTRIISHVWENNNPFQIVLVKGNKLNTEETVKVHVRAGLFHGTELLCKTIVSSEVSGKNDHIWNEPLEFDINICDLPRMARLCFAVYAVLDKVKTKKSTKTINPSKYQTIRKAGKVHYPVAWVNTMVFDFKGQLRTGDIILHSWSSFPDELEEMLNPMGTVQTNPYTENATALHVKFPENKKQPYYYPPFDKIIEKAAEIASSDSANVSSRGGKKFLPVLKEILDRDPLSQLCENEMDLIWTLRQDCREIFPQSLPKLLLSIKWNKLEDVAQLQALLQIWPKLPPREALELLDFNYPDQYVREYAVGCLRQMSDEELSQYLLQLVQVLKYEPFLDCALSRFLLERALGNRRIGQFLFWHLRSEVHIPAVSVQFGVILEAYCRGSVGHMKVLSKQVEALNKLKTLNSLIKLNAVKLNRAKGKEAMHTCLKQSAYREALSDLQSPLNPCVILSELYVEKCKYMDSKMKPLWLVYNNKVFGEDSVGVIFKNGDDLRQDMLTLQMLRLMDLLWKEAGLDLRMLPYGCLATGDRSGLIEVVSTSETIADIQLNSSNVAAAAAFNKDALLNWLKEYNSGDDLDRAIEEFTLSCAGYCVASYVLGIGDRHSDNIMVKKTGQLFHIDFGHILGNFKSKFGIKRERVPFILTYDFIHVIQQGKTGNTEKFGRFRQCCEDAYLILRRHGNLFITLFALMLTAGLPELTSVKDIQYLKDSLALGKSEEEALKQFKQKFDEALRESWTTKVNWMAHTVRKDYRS
Sequence of PI3Kβ (P27986 whole entry partner, canonical isoform): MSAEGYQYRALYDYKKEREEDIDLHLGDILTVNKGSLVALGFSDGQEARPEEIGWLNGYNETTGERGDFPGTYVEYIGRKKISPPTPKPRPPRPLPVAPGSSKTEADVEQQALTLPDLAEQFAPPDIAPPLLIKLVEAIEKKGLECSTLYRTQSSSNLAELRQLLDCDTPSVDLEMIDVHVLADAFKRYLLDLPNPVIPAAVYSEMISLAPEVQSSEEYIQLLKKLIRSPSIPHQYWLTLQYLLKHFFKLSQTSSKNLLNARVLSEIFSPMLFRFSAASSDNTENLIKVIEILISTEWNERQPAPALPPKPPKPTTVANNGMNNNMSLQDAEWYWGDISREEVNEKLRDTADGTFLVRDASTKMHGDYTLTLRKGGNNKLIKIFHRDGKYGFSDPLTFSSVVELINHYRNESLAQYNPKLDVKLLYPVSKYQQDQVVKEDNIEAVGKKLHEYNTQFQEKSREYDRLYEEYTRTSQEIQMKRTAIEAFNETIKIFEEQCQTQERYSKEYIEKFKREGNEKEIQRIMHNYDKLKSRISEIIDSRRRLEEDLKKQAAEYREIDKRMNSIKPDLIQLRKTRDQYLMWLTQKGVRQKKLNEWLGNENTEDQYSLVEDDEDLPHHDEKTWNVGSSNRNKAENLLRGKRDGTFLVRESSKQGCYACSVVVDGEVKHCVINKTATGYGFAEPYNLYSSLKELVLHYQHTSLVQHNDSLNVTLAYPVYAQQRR
Sequence of PI3Kγ (P48736 whole entry, canonical isoform): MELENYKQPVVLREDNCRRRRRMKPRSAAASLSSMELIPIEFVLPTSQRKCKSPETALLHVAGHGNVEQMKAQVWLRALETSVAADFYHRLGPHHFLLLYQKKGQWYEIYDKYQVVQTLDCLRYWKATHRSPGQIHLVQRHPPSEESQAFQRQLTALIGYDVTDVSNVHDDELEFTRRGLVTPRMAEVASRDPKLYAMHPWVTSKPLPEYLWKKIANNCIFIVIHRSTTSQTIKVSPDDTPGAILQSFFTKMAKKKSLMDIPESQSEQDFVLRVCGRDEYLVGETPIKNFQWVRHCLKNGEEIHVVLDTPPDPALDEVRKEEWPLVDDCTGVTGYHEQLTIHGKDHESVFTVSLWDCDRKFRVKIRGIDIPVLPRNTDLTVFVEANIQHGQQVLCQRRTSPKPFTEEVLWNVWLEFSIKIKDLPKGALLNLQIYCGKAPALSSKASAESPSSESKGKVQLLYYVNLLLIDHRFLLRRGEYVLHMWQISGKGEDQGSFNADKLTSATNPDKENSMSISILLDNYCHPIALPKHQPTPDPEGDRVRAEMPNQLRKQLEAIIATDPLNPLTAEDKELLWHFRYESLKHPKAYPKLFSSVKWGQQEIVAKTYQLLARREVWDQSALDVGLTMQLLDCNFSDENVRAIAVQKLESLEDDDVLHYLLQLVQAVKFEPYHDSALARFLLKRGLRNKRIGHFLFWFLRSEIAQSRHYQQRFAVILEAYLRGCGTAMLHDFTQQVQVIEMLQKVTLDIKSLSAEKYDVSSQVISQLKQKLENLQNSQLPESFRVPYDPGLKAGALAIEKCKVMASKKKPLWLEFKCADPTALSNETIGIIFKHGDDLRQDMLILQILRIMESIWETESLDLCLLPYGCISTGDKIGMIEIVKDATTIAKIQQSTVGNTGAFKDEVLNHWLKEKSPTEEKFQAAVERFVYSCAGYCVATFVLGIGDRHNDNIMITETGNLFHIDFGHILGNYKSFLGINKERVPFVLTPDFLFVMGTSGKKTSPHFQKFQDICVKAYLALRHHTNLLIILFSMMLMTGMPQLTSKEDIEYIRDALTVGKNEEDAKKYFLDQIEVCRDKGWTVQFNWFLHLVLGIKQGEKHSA
Sequence of PI3Kδ (O00329 whole entry, canonical isoform): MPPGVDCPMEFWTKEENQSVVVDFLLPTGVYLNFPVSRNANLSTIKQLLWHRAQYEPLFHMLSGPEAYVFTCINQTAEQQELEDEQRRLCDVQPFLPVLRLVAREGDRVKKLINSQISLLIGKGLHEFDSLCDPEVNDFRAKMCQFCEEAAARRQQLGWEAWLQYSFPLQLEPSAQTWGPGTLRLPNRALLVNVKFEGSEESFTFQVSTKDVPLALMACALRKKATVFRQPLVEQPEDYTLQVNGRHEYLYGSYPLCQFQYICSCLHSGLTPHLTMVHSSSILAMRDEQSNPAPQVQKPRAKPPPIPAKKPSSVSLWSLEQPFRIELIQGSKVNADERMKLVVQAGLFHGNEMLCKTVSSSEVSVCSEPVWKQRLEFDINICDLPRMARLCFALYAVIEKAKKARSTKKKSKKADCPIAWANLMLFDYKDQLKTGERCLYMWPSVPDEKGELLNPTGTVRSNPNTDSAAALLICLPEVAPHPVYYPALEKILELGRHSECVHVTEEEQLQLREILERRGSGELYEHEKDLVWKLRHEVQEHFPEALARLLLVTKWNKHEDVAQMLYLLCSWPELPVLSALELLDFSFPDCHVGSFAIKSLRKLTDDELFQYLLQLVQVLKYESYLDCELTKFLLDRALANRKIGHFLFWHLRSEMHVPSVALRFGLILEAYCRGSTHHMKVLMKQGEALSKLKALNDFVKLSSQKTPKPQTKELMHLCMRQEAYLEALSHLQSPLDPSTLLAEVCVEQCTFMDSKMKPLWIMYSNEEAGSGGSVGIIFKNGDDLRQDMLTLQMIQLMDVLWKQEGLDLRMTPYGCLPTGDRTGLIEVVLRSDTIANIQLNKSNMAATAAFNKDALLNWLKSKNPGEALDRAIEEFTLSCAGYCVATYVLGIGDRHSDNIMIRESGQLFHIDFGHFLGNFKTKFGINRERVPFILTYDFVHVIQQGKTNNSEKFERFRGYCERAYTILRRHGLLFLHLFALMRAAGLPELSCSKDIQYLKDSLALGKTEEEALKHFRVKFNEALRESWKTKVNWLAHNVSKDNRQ
Sequence of PI3Kδ (P27986 whole entry partner, canonical isoform): as the sequence (P27986 whole entry partner, canonical isoform) above
Sequence of PI3Kα (P42336 whole entry, canonical isoform): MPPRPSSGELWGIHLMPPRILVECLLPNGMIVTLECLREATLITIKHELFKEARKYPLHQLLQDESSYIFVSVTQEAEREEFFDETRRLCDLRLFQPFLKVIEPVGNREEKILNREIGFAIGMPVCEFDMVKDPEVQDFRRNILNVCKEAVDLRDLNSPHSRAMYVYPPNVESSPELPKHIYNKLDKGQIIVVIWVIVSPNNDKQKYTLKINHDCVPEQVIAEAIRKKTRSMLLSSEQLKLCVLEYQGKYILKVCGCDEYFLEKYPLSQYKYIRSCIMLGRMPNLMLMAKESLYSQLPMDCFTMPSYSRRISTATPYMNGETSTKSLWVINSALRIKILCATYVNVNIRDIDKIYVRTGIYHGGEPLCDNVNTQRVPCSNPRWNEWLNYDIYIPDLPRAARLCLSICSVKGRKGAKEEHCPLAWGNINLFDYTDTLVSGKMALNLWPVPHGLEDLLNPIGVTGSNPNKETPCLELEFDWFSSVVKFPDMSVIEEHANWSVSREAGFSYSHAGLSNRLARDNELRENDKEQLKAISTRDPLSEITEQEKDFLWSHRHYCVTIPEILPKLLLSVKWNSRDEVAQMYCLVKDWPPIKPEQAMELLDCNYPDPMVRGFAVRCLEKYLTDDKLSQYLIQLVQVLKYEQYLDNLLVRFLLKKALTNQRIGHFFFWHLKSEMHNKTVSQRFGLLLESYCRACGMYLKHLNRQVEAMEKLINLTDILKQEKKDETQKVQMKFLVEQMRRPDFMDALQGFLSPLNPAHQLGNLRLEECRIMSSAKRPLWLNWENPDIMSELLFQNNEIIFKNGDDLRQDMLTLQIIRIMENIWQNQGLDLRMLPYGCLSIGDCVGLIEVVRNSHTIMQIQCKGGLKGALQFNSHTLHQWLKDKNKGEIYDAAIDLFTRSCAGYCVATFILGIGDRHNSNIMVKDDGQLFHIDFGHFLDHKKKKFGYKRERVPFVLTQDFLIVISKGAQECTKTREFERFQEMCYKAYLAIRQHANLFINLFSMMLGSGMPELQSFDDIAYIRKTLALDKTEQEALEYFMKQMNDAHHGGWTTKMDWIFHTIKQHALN
Sequence of PI3Kα (P27986 whole entry partner, canonical isoform): as the sequence (P27986 whole entry partner, canonical isoform) above

Which AUC(0-t) ([1]; male, SD, rat, plasma, iv, 5 mg/kg, Mean) does the source give for `COC(=O)Nc1cc(C(F)(F)F)c(-c2nc(N3CCOCC3)c3cc(CN4CCN(S(C)(=O)=O)CC4)cn3n2)cn1` [CYH33, reference compound] here?
The AUC(0-t) was 3540 ng·h/mL.

And the MRT ([1]; male, SD, rat, plasma, iv, 5 mg/kg, Mean, read-out: MRT)?
The MRT was 1.31 h.

And the AUC(0-inf) [1, 3]?
The AUC(0-inf) was 2850 ng·h/mL.

And the AUC(0-t) [1, 3]?
The AUC(0-t) was 2850 ng·h/mL.

What about the clearance [1, 3] of the same compound?
The clearance was 29.2 mL/min/kg.

And the half-life [1, 3]?
The half-life was 0.83 h.

What about the MRT ([1]; male, SD, rat, plasma, iv, 5 mg/kg, individual animal, read-out: MRT) of the same compound?
Its MRT is 1.1 h.

What about the Vd ([1]; male, SD, rat, plasma, iv, 5 mg/kg, individual animal, read-out: Vss) of the same compound?
Its Vd is 1.93 L/kg.

And the “AUC 0 − ∞” value ([1]; Mean)?
The value was 3559 ng·h/mL.

And the Cl ([1]; Mean)?
The Cl was 24 mL/min/kg.

What about the T1/2 ([1]; Mean) of the same compound?
Its T1/2 is 0.982 h.

And the Vss ([1]; Mean)?
The Vss was 1.843 L/kg.

What about the “AUC 0 − t” value ([1]; individual animal, 5 mg/kg) of the same compound?
The value was 3645 ng·h/mL and 4142 ng·h/mL.

What about the “AUC 0 − ∞” value ([1]; individual animal, 5 mg/kg) of the same compound?
The value was 3655 ng·h/mL and 4172 ng·h/mL.

What about the Cl ([1]; individual animal, 5 mg/kg) of the same compound?
Its Cl is 22.8 mL/min/kg and 20 mL/min/kg.

And the MRT ([1]; individual animal, 5 mg/kg)?
Its MRT is 1.26 h and 1.57 h.

What about the T1/2 ([1]; individual animal, 5 mg/kg) of the same compound?
Its T1/2 is 0.95 h and 1.16 h.

And the Vss ([1]; individual animal, 5 mg/kg)?
The Vss was 1.72 L/kg and 1.88 L/kg.

And the “F (absolute bioavailability)” value [2]?
The value was 36.9%.

With `Cc1c(CNCCCN(C)C)cc2c(N3CCOCC3)nc(-c3cnc(N)cc3C(F)(F)F)nn12` [Compound P-2] as the compound, how does the IC50 (PI3Kγ) read?
Its IC50 is 37600 nM.

And the inhibition at 0.1 µM (PI3Kγ)?
Its inhibition at 0.1 µM is 0.62%.

What about the IC50 (PI3Kβ) of the same compound?
The IC50 was 2140 nM.

What about the inhibition at 0.1 µM (PI3Kβ) of the same compound?
Its inhibition at 0.1 µM is 4.74%.

What about the IC50 (PI3Kα) of the same compound?
Its IC50 is 321 nM.

And the inhibition at 0.02 µM (PI3Kα)?
Its inhibition at 0.02 µM is 18.7%.

What about the IC50 (PI3Kδ) of the same compound?
The IC50 was 36.6 nM.

And the inhibition at 0.02 µM (PI3Kδ)?
The inhibition at 0.02 µM was 46%.

With `COCCCNCc1cc2c(N3CCOCC3)nc(-c3cnc(N)cc3C(F)(F)F)nn2c1C` [Compound P-3] as the compound, how does the inhibition at 0.1 µM (PI3Kγ) read?
Its inhibition at 0.1 µM is 2.94%.

And the inhibition at 0.1 µM (PI3Kβ)?
Its inhibition at 0.1 µM is -0.12%.

What about the inhibition at 0.02 µM (PI3Kα) of the same compound?
Its inhibition at 0.02 µM is 6.72%.

And the inhibition at 0.02 µM (PI3Kδ)?
Its inhibition at 0.02 µM is 39.8%.

Which results are given for `Cc1c(CN2CCC(C(C)(C)O)CC2)cc2c(N3CCOCC3)nc(-c3cnc(N)cc3C(F)(F)F)nn12` [Compound P-5]?
IC50 (PI3Kγ): 4830 nM; inhibition at 0.1 µM (PI3Kγ): -2.33%; IC50 (PI3Kβ): 1360 nM; inhibition at 0.1 µM (PI3Kβ): 14.9%; IC50 (PI3Kα): 424 nM; inhibition at 0.02 µM (PI3Kα): -0.6%; IC50 (PI3Kδ): 19.6 nM; inhibition at 0.02 µM (PI3Kδ): 53.2%; selectivity for PI3Kδ (in words) (PI3Kδ): selective inhibitory effect on PI3Kδ; also recorded: good selectivities for PI3Kδ

With `CCN1CCN(Cc2cc3c(N4CCOCC4)nc(-c4cnc(N)cc4C(F)(F)F)nn3c2C)CC1` [Compound P-6] as the compound, how does the IC50 (PI3Kγ) read?
The IC50 was 9870 nM.

What about the inhibition at 0.1 µM (PI3Kγ) of the same compound?
Its inhibition at 0.1 µM is -4.8%.

What about the IC50 (PI3Kβ) of the same compound?
The IC50 was 4570 nM.

What about the inhibition at 0.1 µM (PI3Kβ) of the same compound?
Its inhibition at 0.1 µM is 11.8%.

And the IC50 (PI3Kα)?
Its IC50 is 624 nM.

And the inhibition at 0.02 µM (PI3Kα)?
The inhibition at 0.02 µM was 69.7%.

What about the IC50 (PI3Kδ) of the same compound?
The IC50 was 35.3 nM.

What about the inhibition at 0.02 µM (PI3Kδ) of the same compound?
Its inhibition at 0.02 µM is 41.4%.

What about the “selectivity for PI3Kδ (in words)” value (PI3Kδ) of the same compound?
Its value is “selective inhibitory effect on PI3Kδ; also recorded: good selectivities for PI3Kδ”.

Which IC50 (PI3Kγ) does the source give for `Cc1c(CN2CCC(N(C)C)CC2)cc2c(N3CCOCC3)nc(-c3cnc(N)cc3C(F)(F)F)nn12` [Compound P-7] here?
The IC50 was 15300 nM.

And the inhibition at 0.1 µM (PI3Kγ)?
Its inhibition at 0.1 µM is -7.96%.

And the IC50 (PI3Kβ)?
Its IC50 is 3460 nM.

And the inhibition at 0.1 µM (PI3Kβ)?
Its inhibition at 0.1 µM is 3.43%.

What about the IC50 (PI3Kα) of the same compound?
Its IC50 is 439 nM.

And the inhibition at 0.02 µM (PI3Kα)?
Its inhibition at 0.02 µM is 3.6%.

And the IC50 (PI3Kδ)?
Its IC50 is 27.6 nM.

And the inhibition at 0.02 µM (PI3Kδ)?
The inhibition at 0.02 µM was 53.6%.

What about the “selectivity for PI3Kδ (in words)” value (PI3Kδ) of the same compound?
Its value is “selective inhibitory effect on PI3Kδ; also recorded: good selectivities for PI3Kδ”.

What does the source list for `Cc1c(CN2CCN(S(C)(=O)=O)CC2)cc2c(N3CCOCC3)nc(-c3cnc(N)cc3C(F)(F)F)nn12` [Compound P-9]?
IC50 (PI3Kγ): 283 nM; inhibition at 0.1 µM (PI3Kγ): 31.4%; IC50 (PI3Kβ): 1190 nM; inhibition at 0.1 µM (PI3Kβ): 12.8%; IC50 (PI3Kα): 26.4 nM; inhibition at 0.02 µM (PI3Kα): 68.9%; IC50 (PI3Kδ): 23.7 nM; inhibition at 0.02 µM (PI3Kδ): 51.2%

Which results are given for `Cc1c(CN2CCN(S(C)(=O)=O)CC2)cc2c(N3CCOC[C@@H]3C)nc(-c3cnc(N)cc3C(F)(F)F)nn12` [Compound P-10]?
IC50 (PI3Kγ): 202 nM; inhibition at 0.1 µM (PI3Kγ): 32.1%; IC50 (PI3Kβ): 1770 nM; inhibition at 0.1 µM (PI3Kβ): 7.84%; IC50 (PI3Kα): 104 nM; inhibition at 0.02 µM (PI3Kα): 80.5%; IC50 (PI3Kδ): 79.7 nM; inhibition at 0.02 µM (PI3Kδ): 39.7%
